# Literature values in patent US20060198830A1, “Ubiquinone composition and a container for its convenient transport and storage” (priority 2005, published 2006).
# Settings: administration of 300-1200 mg/day of CoQ10
smiles,measurement,value
"COC1=C(OC)C(=O)C(C/C=C(\C)CC/C=C(\C)CC/C=C(\C)CC/C=C(\C)CC/C=C(\C)CC/C=C(\C)CC/C=C(\C)CC/C=C(\C)CC/C=C(\C)CCC=C(C)C)=C(C)C1=O [CoQ10, Ubiquinone]",plasma CoQ10 concentrations,3 to 4 µg/mL
